Patent US20050197364A1, “Amide compounds as ion channel ligands and uses thereof” (priority 2003, published 2005)

System: VR1 receptor
Test: High throughput calcium imaging assay (Fura2, Flex Station) of VR1 antagonists, pH 5.1 stimulus
Type: cell-based
Conditions: 1 uM compound; inhibition of calcium ion influx induced by capsaicin stimulation

How did the “% Inhibition @ 1 uM” value turn out when `Cc1ccnc(NC(=O)c2ccc(-c3ncccc3Cl)c(F)c2)c1` [Compound 145] was run?
Its value is “+ + + + (compound exhibited 75% or greater inhibition of calcium ion influx induced by capsaicin stimulation)”.

For `O=C(Nc1ccc(C(F)(F)F)cn1)c1ccc(-c2ncccc2Cl)c(F)c1` [Compound 149], which “% Inhibition @ 1 uM” value is on record?
The value was “+ + (compound exhibited 25-50% inhibition of calcium ion influx induced by capsaicin stimulation)”.

Which “% Inhibition @ 1 uM” value does the source give for `O=C(Nc1ccc(Cl)nc1)c1ccc(-c2ncccc2Cl)c(F)c1` [Compound 152] here?
Its value is “+ (compound exhibited 0-25% inhibition of calcium ion influx induced by capsaicin stimulation)”.

With `COc1ccc(NC(=O)c2ccc(-c3ncccc3Cl)c(F)c2)cn1` [Compound 153] as the compound, how does the “% Inhibition @ 1 uM” value read?
The value was “+ + (compound exhibited 25-50% inhibition of calcium ion influx induced by capsaicin stimulation)”.

How did the “% Inhibition @ 1 uM” value turn out when `O=C(Nc1ccc2ncccc2c1)c1ccc(-c2ncccc2Cl)c(F)c1` [Compound 156] was run?
Its value is “+ + + + (compound exhibited 75% or greater inhibition of calcium ion influx induced by capsaicin stimulation)”.

For `O=C(Nc1cc[nH]n1)c1ccc(-c2ncccc2Cl)c(F)c1` [Compound 158], which “% Inhibition @ 1 uM” value is on record?
The value was “+ (compound exhibited 0-25% inhibition of calcium ion influx induced by capsaicin stimulation)”.

`O=C(Nc1ccc2ccccc2c1)c1ccc(-c2ncccc2Cl)c(F)c1` [Compound 160] was tested. Which “% Inhibition @ 1 uM” value did it give?
The value was “+ + + + (compound exhibited 75% or greater inhibition of calcium ion influx induced by capsaicin stimulation)”.

For `O=C(O)c1cccc(NC(=O)c2ccc(-c3ncccc3Cl)c(F)c2)c1` [Compound 165], which “% Inhibition @ 1 uM” value is on record?
The value was “+ (compound exhibited 0-25% inhibition of calcium ion influx induced by capsaicin stimulation)”.

For `O=C(Nc1ccc(Cl)c(C(=O)O)c1)c1ccc(-c2ncccc2Cl)c(F)c1` [Compound 166], which “% Inhibition @ 1 uM” value is on record?
Its value is “+ + + + (compound exhibited 75% or greater inhibition of calcium ion influx induced by capsaicin stimulation)”.

For `COc1ccc(NC(=O)c2ccc(-c3ncccc3Cl)c(F)c2)cc1O` [Compound 170], which “% Inhibition @ 1 uM” value is on record?
The value was “+ + (compound exhibited 25-50% inhibition of calcium ion influx induced by capsaicin stimulation)”.

How did the “% Inhibition @ 1 uM” value turn out when `O=C(Nc1ccc2cn[nH]c2c1)c1ccc(-c2ncccc2Cl)c(F)c1` [Compound 172] was run?
The value was “+ + + (compound exhibited 50-75% inhibition of calcium ion influx induced by capsaicin stimulation)”.

For `CCCOc1ccc(NC(=O)c2ccc(-c3ncccc3Cl)c(F)c2)cc1` [Compound 173], which “% Inhibition @ 1 uM” value is on record?
Its value is “+ + (compound exhibited 25-50% inhibition of calcium ion influx induced by capsaicin stimulation)”.

How did the “% Inhibition @ 1 uM” value turn out when `O=C(Nc1ccc(OC(F)(F)F)cc1)c1ccc(-c2ncccc2Cl)c(F)c1` [Compound 175] was run?
The value was “+ + (compound exhibited 25-50% inhibition of calcium ion influx induced by capsaicin stimulation)”.

Which “% Inhibition @ 1 uM” value does the source give for `O=C(Nc1cccc(OC(F)(F)F)c1)c1ccc(-c2ncccc2Cl)c(F)c1` [Compound 176] here?
The value was “+ (compound exhibited 0-25% inhibition of calcium ion influx induced by capsaicin stimulation)”.

`CC(C)Oc1cccc(NC(=O)c2ccc(-c3ncccc3Cl)c(F)c2)c1` [Compound 177] was tested. Which “% Inhibition @ 1 uM” value did it give?
The value was “+ (compound exhibited 0-25% inhibition of calcium ion influx induced by capsaicin stimulation)”.

With `O=C(Nc1ccc(F)c(F)c1)c1ccc(-c2ncccc2Cl)c(F)c1` [Compound 178] as the compound, how does the “% Inhibition @ 1 uM” value read?
Its value is “+ + + (compound exhibited 50-75% inhibition of calcium ion influx induced by capsaicin stimulation)”.

How did the “% Inhibition @ 1 uM” value turn out when `O=C(Nc1ccc(N2CCNCC2)c(Cl)c1)c1ccc(-c2ncccc2Cl)c(F)c1` [Compound 183] was run?
The value was “+ + + + (compound exhibited 75% or greater inhibition of calcium ion influx induced by capsaicin stimulation)”.

With `CC1CCCc2ccc(NC(=O)c3ccc(-c4ncccc4Cl)c(F)c3)cc21` (centres unmarked) [Compound 186] as the compound, how does the “% Inhibition @ 1 uM” value read?
Its value is “+ (compound exhibited 0-25% inhibition of calcium ion influx induced by capsaicin stimulation)”.

`COc1cc(C(=O)NC(C)(C)C)ccc1-c1ncccc1Cl` [Compound 187] was tested. Which “% Inhibition @ 1 uM” value did it give?
The value was “+ (compound exhibited 0-25% inhibition of calcium ion influx induced by capsaicin stimulation)”.

With `COc1cc(C(=O)Nc2ccccc2)ccc1-c1ncccc1Cl` [Compound 189] as the compound, how does the “% Inhibition @ 1 uM” value read?
The value was “+ (compound exhibited 0-25% inhibition of calcium ion influx induced by capsaicin stimulation)”.

How did the “% Inhibition @ 1 uM” value turn out when `COc1ccc(NC(=O)c2ccc(-c3ncccc3Cl)c(OC)c2)cc1` [Compound 190] was run?
The value was “+ (compound exhibited 0-25% inhibition of calcium ion influx induced by capsaicin stimulation)”.

With `COc1cc(C(=O)Nc2ccccc2C#N)ccc1-c1ncccc1Cl` [Compound 192] as the compound, how does the “% Inhibition @ 1 uM” value read?
The value was “+ (compound exhibited 0-25% inhibition of calcium ion influx induced by capsaicin stimulation)”.

With `COc1cc(C(=O)Nc2cccc(Cl)c2)ccc1-c1ncccc1Cl` [Compound 193] as the compound, how does the “% Inhibition @ 1 uM” value read?
Its value is “+ (compound exhibited 0-25% inhibition of calcium ion influx induced by capsaicin stimulation)”.

`COc1ccccc1NC(=O)c1ccc(-c2ncccc2Cl)c(OC)c1` [Compound 194] was tested. Which “% Inhibition @ 1 uM” value did it give?
The value was “+ + (compound exhibited 25-50% inhibition of calcium ion influx induced by capsaicin stimulation)”.

How did the “% Inhibition @ 1 uM” value turn out when `CCCc1ccccc1NC(=O)c1ccc(-c2ncccc2Cl)c(OC)c1` [Compound 195] was run?
The value was “+ + (compound exhibited 25-50% inhibition of calcium ion influx induced by capsaicin stimulation)”.

`COc1cccc(NC(=O)c2ccc(-c3ncccc3Cl)c(OC)c2)c1` [Compound 196] was tested. Which “% Inhibition @ 1 uM” value did it give?
Its value is “+ + (compound exhibited 25-50% inhibition of calcium ion influx induced by capsaicin stimulation)”.

For `COc1cc(C(=O)Nc2cccc(Cl)c2Cl)ccc1-c1ncccc1Cl` [Compound 199], which “% Inhibition @ 1 uM” value is on record?
Its value is “+ + + + (“+ + + +” compound exhibited 75% or greater inhibition of calcium ion influx induced by capsaicin stimulation.)”.

Which “% Inhibition @ 1 uM” value does the source give for `COc1cc(C(=O)Nc2cccc(C#N)c2)ccc1-c1ncccc1Cl` [Compound 201] here?
The value was “+ + + + (“+ + + +” compound exhibited 75% or greater inhibition of calcium ion influx induced by capsaicin stimulation.)”.

How did the “% Inhibition @ 1 uM” value turn out when `CCCCc1ccc(NC(=O)c2ccc(-c3ncccc3Cl)c(OC)c2)cc1` [Compound 204] was run?
The value was “+ + (“+ +” compound exhibited 25-50% inhibition of calcium ion influx induced by capsaicin stimulation.)”.

`COc1cc(C(=O)Nc2ccc(C)cc2C)ccc1-c1ncccc1Cl` [Compound 206] was tested. Which “% Inhibition @ 1 uM” value did it give?
Its value is “+ + + + (“+ + + +” compound exhibited 75% or greater inhibition of calcium ion influx induced by capsaicin stimulation.)”.

For `COc1cc(C(=O)Nc2ccc(F)cc2[N+](=O)[O-])ccc1-c1ncccc1Cl` [Compound 210], which “% Inhibition @ 1 uM” value is on record?
Its value is “+ + + + (“+ + + +” compound exhibited 75% or greater inhibition of calcium ion influx induced by capsaicin stimulation.)”.

Which “% Inhibition @ 1 uM” value does the source give for `COc1ccc(NC(=O)c2ccc(-c3ncccc3Cl)c(OC)c2)cc1Cl` [Compound 212] here?
Its value is “+ + + (“+ + +” compound exhibited 50-75% inhibition of calcium ion influx induced by capsaicin stimulation.)”.

For `COc1cc(C(=O)Nc2ccc(C(F)(F)F)cc2)ccc1-c1ncccc1Cl` [Compound 213], which “% Inhibition @ 1 uM” value is on record?
The value was “+ + (“+ +” compound exhibited 25-50% inhibition of calcium ion influx induced by capsaicin stimulation.)”.

For `COc1cc(C(=O)Nc2ccc(Cl)c(C(F)(F)F)c2)ccc1-c1ncccc1Cl` [Compound 214], which “% Inhibition @ 1 uM” value is on record?
The value was “+ (“+” compound exhibited 0-25% inhibition of calcium ion influx induced by capsaicin stimulation.)”.

With `COc1cc(C(=O)Nc2cc(C)cc(C)n2)ccc1-c1ncccc1Cl` [Compound 217] as the compound, how does the “% Inhibition @ 1 uM” value read?
The value was “+ (“+” compound exhibited 0-25% inhibition of calcium ion influx induced by capsaicin stimulation.)”.

How did the “% Inhibition @ 1 uM” value turn out when `COc1cc(C(=O)Nc2ccncc2)ccc1-c1ncccc1Cl` [Compound 218] was run?
The value was “+ + + + (“+ + + +” compound exhibited 75% or greater inhibition of calcium ion influx induced by capsaicin stimulation.)”.

`COc1cc(C(=O)Nc2cccnc2)ccc1-c1ncccc1Cl` [Compound 219] was tested. Which “% Inhibition @ 1 uM” value did it give?
Its value is “+ (“+” compound exhibited 0-25% inhibition of calcium ion influx induced by capsaicin stimulation.)”.

Which “% Inhibition @ 1 uM” value does the source give for `COc1cc(C(=O)Nc2cc(C)ccn2)ccc1-c1ncccc1Cl` [Compound 223] here?
Its value is “+ + + + (“+ + + +” compound exhibited 75% or greater inhibition of calcium ion influx induced by capsaicin stimulation.)”.

For `COc1cc(C(=O)Nc2ccncn2)ccc1-c1ncccc1Cl` [Compound 225], which “% Inhibition @ 1 uM” value is on record?
The value was “+ + (“+ +” compound exhibited 25-50% inhibition of calcium ion influx induced by capsaicin stimulation.)”.

`COc1cc(C(=O)Nc2ccc(Br)cn2)ccc1-c1ncccc1Cl` [Compound 226] was tested. Which “% Inhibition @ 1 uM” value did it give?
The value was “+ (“+” compound exhibited 0-25% inhibition of calcium ion influx induced by capsaicin stimulation.)”.

For `COc1ccc(NC(=O)c2ccc(-c3ncccc3Cl)c(OC)c2)cn1` [Compound 230], which “% Inhibition @ 1 uM” value is on record?
The value was “+ + (“+ +” compound exhibited 25-50% inhibition of calcium ion influx induced by capsaicin stimulation.)”.

How did the “% Inhibition @ 1 uM” value turn out when `COc1cc(C(=O)Nc2ccnc(Cl)c2)ccc1-c1ncccc1Cl` [Compound 231] was run?
Its value is “+ (“+” compound exhibited 0-25% inhibition of calcium ion influx induced by capsaicin stimulation.)”.

How did the “% Inhibition @ 1 uM” value turn out when `COc1cc(C(=O)Nc2cc(C)nc(C)n2)ccc1-c1ncccc1Cl` [Compound 232] was run?
The value was “+ (“+” compound exhibited 0-25% inhibition of calcium ion influx induced by capsaicin stimulation.)”.

With `COc1cc(C(=O)Nc2ccc3ncccc3c2)ccc1-c1ncccc1Cl` [Compound 233] as the compound, how does the “% Inhibition @ 1 uM” value read?
Its value is “+ + + + (“+ + + +” compound exhibited 75% or greater inhibition of calcium ion influx induced by capsaicin stimulation.)”.

`CCn1c2ccccc2c2cc(NC(=O)c3ccc(-c4ncccc4Cl)c(OC)c3)ccc21` [Compound 234] was tested. Which “% Inhibition @ 1 uM” value did it give?
The value was “+ (“+” compound exhibited 0-25% inhibition of calcium ion influx induced by capsaicin stimulation.)”.

With `COc1cc(C(=O)Nc2nccs2)ccc1-c1ncccc1Cl` [Compound 235] as the compound, how does the “% Inhibition @ 1 uM” value read?
The value was “+ (“+” compound exhibited 0-25% inhibition of calcium ion influx induced by capsaicin stimulation.)”.

With `COc1cc(C(=O)Nc2ccc3ccccc3c2)ccc1-c1ncccc1Cl` [Compound 236] as the compound, how does the “% Inhibition @ 1 uM” value read?
The value was “+ + + + (“+ + + +” compound exhibited 75% or greater inhibition of calcium ion influx induced by capsaicin stimulation.)”.

With `COc1ccc(NC(=O)c2ccc(-c3ncccc3Cl)c(OC)c2)cc1OC` [Compound 240] as the compound, how does the “% Inhibition @ 1 uM” value read?
The value was “+ (“+” compound exhibited 0-25% inhibition of calcium ion influx induced by capsaicin stimulation.)”.

`COc1cc(C(=O)Nc2cccc(C(=O)O)c2)ccc1-c1ncccc1Cl` [Compound 241] was tested. Which “% Inhibition @ 1 uM” value did it give?
Its value is “+ (“+” compound exhibited 0-25% inhibition of calcium ion influx induced by capsaicin stimulation.)”.

For `COc1cc(C(=O)Nc2ccc(Cl)c(C(=O)O)c2)ccc1-c1ncccc1Cl` [Compound 242], which “% Inhibition @ 1 uM” value is on record?
The value was “+ + + + (“+ + + +” compound exhibited 75% or greater inhibition of calcium ion influx induced by capsaicin stimulation.)”.
